Assay results taken from PMC11945486, “TAS1R2/TAS1R3 Single-Nucleotide Polymorphisms Affect Sweet Taste Receptor Activation by Sweeteners: The SWEET Project” (Nutrients, 2025).
Blank lines part the entries; values can stand above or below the molecule they belong to. No end group written: not given here.

Molecular target: T1, human TAS1R2-I595T/TAS1R3-WT (Homo sapiens, UniProt Q7RTX0+Q8TE23, I595T)
T1 construct: expressed in transfected cells; host or cells: HEK293T-Gα16gust44
T1 sequence (Q8TE23 20-839 I595T): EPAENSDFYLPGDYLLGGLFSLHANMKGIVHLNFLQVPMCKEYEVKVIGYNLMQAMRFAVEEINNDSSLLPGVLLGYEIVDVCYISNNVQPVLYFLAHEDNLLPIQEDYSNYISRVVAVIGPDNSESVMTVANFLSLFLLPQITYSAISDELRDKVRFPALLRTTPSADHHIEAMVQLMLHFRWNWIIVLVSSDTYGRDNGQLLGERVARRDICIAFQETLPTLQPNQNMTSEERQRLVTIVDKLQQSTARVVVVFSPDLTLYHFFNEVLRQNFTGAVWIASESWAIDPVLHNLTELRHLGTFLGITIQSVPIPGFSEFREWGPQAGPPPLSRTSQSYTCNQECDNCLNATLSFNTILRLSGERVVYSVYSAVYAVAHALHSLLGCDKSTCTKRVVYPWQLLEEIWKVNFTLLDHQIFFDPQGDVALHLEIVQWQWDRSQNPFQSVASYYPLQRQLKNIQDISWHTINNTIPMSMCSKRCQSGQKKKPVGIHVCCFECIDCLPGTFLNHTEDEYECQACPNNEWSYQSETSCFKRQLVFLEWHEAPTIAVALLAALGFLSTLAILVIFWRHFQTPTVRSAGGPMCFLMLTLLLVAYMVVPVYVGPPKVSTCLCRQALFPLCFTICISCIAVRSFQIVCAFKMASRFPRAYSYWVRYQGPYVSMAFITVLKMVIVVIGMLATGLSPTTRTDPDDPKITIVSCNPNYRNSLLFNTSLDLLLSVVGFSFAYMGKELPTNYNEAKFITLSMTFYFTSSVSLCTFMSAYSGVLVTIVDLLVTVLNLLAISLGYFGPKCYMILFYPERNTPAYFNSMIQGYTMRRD
T1 sequence (Q7RTX0 21-852): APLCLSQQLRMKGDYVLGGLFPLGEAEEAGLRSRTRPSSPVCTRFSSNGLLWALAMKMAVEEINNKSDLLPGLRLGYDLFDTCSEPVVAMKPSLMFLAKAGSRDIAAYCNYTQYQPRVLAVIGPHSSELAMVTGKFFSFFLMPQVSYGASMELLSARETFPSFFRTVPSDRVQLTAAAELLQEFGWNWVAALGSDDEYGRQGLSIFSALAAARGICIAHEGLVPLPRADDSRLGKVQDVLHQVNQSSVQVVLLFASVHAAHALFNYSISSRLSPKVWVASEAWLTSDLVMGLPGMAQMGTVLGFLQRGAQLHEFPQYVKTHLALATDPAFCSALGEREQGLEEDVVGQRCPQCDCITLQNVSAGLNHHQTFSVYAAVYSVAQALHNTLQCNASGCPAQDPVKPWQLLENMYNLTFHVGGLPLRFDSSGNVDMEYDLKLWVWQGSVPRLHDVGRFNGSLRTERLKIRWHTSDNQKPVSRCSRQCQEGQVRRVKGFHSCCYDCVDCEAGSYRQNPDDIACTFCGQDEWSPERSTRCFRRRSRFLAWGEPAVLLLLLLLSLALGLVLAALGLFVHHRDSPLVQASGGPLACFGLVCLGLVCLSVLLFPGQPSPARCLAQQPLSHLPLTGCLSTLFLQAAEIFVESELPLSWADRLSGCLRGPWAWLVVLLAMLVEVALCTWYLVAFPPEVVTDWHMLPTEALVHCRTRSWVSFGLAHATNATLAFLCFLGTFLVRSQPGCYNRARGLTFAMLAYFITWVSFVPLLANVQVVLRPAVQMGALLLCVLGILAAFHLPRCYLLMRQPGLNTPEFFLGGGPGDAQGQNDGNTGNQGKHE
Experiment: Calcium mobilisation assay, TAS1R2 variant I595T with TAS1R3-WT
Assay type: cell-based
Conditions: "-": no activation; for Max ΔF/F0: maximal signal amplitude
Excerpt: The coding sequences for TAS1R2 and TAS1R3 were commercially synthesised, and the human codon was optimised for expression in human cells. The coding sequences of human TAS1R2 and TAS1R3 were subcloned and inserted into the mammalian expression vectors pcDNA6/myc-HisA and pcDNA4/myc-HisA (Invitrogen; Thermo Fisher Scientific; Illkirch, France) between the EcoRI and NotI restriction sites, generating the plasmids pcDNA6-TAS1R2 and pcDNA4-TAS1R3, respectively. To increase protein expression in mammalian cells, an upstream start codon was used, which was a sequence called MAX, corresponding to the QBI SP163 element also described in pcDNA4-HisMax (Invitrogen; Thermo Fisher Scientific; Illkirch, France). To measure the expression level of the receptor by immunohistochemistry, we used the FLAG sequence ([…]) in the C-terminal position, which encodes the FLAG tag epitope. SNP variants of TAS1R2 and TAS1R3 were constructed based on […], respectively, using site-directed mutagenesis (Genewiz; Leipzig, Germany).
The HEK293T cells were kindly provided by Jay P. Slack (Givaudan Flavors Corporation; Cincinnati, OH, USA). HEK293T cells stably transfected with Gα16gust44 [43, 67] were seeded in poly-D-lysine-coated clear-bottom black 96-well plates (0.35 × 10^5 cells/well) in high-glucose DMEM supplemented with 2 mM GlutaMAX, 10% dialysed foetal bovine serum with penicillin/streptomycin and G418 (400 μg/mL) at 37 °C and 6.3% CO2 in a humidified atmosphere as previously reported. […] As a negative control, HEK293T cells were mock-transfected with the empty expression vector. After a further 24 h of incubation, the HEK293T cells were washed with C1 buffer (130 mM NaCl, 5 mM KCl, 10 mM HEPES pH 7.4 and 2 mM CaCl2). The 96-well plates containing the cells were then stimulated with sweet-tasting compounds. […] Different concentration ranges were tested depending on the sweet compound injected. The Ca^2+ changes were expressed as fractional changes in fluorescent light intensity: ΔF/F = (F − F0)/F0, where F was the fluorescent light intensity at each point, and F0 was the value of emitted fluorescent light prior to stimulus application. To calculate dose–response relationships, the changes in fluorescence upon stimulus application were averaged, mock-subtracted and baseline-corrected. The dose–response data obtained were adjusted using a 4-parameter logistic equation. The half-maximal effective concentrations (EC50 values) and maximal signal amplitudes were calculated using SigmaPlot software (version 15.0) (Systat Software; San Jose, CA, USA).
For in vitro calcium mobilisation assay performed on hTAS1R2-SNPs, hTAS1R3-SNPs and mTAS1R3-I60T, 6 to 7 concentrations were tested for each sweet compound, plus buffer alone. All concentration–receptor combinations were measured in duplicate, and each experiment was repeated at least 4 times (8 wells/concentration). Results were expressed for each concentration as ΔF/F mean ± SEM and represented as dose–response curves.

Molecule: CC1=CC(=O)NS(=O)(=O)O1 [Acesulfame K, acesulfame K]
EC50: 300 ± 139 µM
R1 = Variant EC50/WT EC50: 0.4
Max ΔF/F0: 0.02 ± 0.01

Molecule: O=S(=O)(O)NC1CCCCC1 [Cyclamate, cyclamate]
EC50: 2030 ± 102 µM

Molecule: C[C@H](CC[C@@H](O[C@@H]1O[C@H](CO[C@@H]2O[C@H](CO)[C@@H](O)[C@H](O)[C@H]2O)[C@@H](O)[C@H](O)[C@H]1O[C@@H]1O[C@H](CO)[C@@H](O)[C@H](O)[C@H]1O)C(C)(C)O)[C@H]1CC[C@@]2(C)[C@@H]3CC=C4[C@@H](CC[C@H](O[C@@H]5O[C@H](CO[C@@H]6O[C@H](CO)[C@@H](O)[C@H](O)[C@H]6O)[C@@H](O)[C@H](O)[C@H]5O)C4(C)C)[C@]3(C)[C@H](O)C[C@]12C [Mogroside V, mogroside V]
EC50: 31.4 ± 6 µM
R1 = Variant EC50/WT EC50: 1.8
Max ΔF/F0: 0.27 ± 0.03

Molecule: COc1ccc(CCC(=O)c2c(O)cc(O[C@@H]3O[C@H](CO)[C@@H](O)[C@H](O)[C@H]3O[C@@H]3O[C@@H](C)[C@H](O)[C@@H](O)[C@H]3O)cc2O)cc1O [NHDC, neohesperidin dihydrochalcone]
EC50: 70.3 ± 1.3 µM
R1 = Variant EC50/WT EC50: 0.9
Max ΔF/F0: 0.09 ± 0.01

Molecule: COC(=O)[C@H](Cc1ccccc1)NC(=O)[C@H](CC(=O)O)NCCC(C)(C)C [Neotame]
EC50: 1.27 ± 0.18 µM
R1 = Variant EC50/WT EC50: 1.5
Max ΔF/F0: 0.09 ± 0.01

Second part, the molecule after the results:

EC50: 53.2 ± 1.6 µM
R1 = Variant EC50/WT EC50: 3.0
Max ΔF/F0: 0.51 ± 0.01
Molecule: C=C(C)[C@@H]1CC=C(/C=N/O)CC1 [Perillartine, perillartine]

EC50: 35.8 ± 4 µM
R1 = Variant EC50/WT EC50: 2.1
Max ΔF/F0: 0.23 ± 0.01
Molecule: C=C1C[C@@]23CC[C@H]4[C@@](C)(CCC[C@@]4(C)C(=O)O[C@@H]4O[C@H](CO)[C@@H](O)[C@H](O[C@@H]5O[C@H](CO)[C@@H](O)[C@H](O)[C@H]5O)[C@H]4O[C@@H]4O[C@H](CO)[C@@H](O)[C@H](O)[C@H]4O)[C@@H]2CC[C@]1(O[C@@H]1O[C@H](CO)[C@@H](O)[C@H](O[C@@H]2O[C@H](CO)[C@@H](O)[C@H](O)[C@H]2O)[C@H]1O[C@@H]1O[C@H](CO)[C@@H](O)[C@H](O)[C@H]1O)C3 [Rebaudioside M, rebaudioside M]

EC50: 108 ± 5 µM
R1 = Variant EC50/WT EC50: 1.2
Max ΔF/F0: 0.08 ± 0.02
Molecule: OC[C@H]1O[C@H](O[C@]2(CCl)O[C@H](CCl)[C@@H](O)[C@@H]2O)[C@H](O)[C@@H](O)[C@H]1Cl [Sucralose]

R1 = Variant EC50/WT EC50: 10.8
Max ΔF/F0: 0.13 ± 0.02
Molecule: brazzein (QDKCKKVYENYPVSKCQLANQCNYDCKLDKHARSGECFYDEKRNLQCICDYCEY; ends and bridges not checked; cysteine pairing not given here; UniProt P56552 1-54, looked up) [sweet-tasting protein obtained by recombinant production using the yeast Pichia pastoris]

R1 = Variant EC50/WT EC50: 3.7
Max ΔF/F0: 0.39 ± 0.01
Molecule: thaumatin

EC50: 27.8 ± 1.4 µM
B1: thaumatin (protein)
chain: ATFEIVNRCSYTVWAAASKGDAALDAGGRQLNSGESWTINVEPGTKGGKIWARTDCYFDDSGSGICKTGDCGGLLRCKRFGRPPTTLAEFSLNQYGKDYIDISNIKGFNVPMDFSPTTRGCRGVRCAADIVGQCPAKLKAPGGGCNDACTVFQTSEYCCTTGKCGPTEYSRFFKRLCPDAFSYVLDKPTTVTCPGSSNYRVTFCPTA
modifications: Eight disulfides
notes: sweet-tasting plant protein, E957
